The values below are quoted from earlier work in patent US4163799A, “Psychostimulant compounds” (Union Chimique Continentale U.C.C., priority 1975, dated 1979).

The conditions of the series: caffeine, comparison in words, no test described; cited from earlier work.

Regarding `Cn1c(=O)c2c(ncn2C)n(C)c1=O` [caffeine], the antihypnotic effect entry is recorded as “does”.
